Biological target: T1, human oxytocin receptor (Homo sapiens, UniProt P30559)
T1 sequence (P30559 1-389): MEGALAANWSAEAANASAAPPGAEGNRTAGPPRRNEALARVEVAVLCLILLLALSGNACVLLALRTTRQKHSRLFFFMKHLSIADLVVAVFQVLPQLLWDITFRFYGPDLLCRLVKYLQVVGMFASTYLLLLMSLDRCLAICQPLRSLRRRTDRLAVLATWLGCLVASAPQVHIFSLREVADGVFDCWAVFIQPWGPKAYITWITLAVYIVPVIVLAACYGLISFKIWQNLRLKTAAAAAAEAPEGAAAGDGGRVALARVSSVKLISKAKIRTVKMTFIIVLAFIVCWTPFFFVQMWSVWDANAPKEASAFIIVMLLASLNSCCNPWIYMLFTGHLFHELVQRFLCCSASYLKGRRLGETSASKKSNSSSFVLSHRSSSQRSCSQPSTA
Assay: Oxytocin binding in CHO cell membranes expressing human oxytocin receptors
Conditions: 100 nM, [3H]oxytocin
Text: Oxytocin Binding in Chinese Hamster Ovary Cell Membranes Expressing Human Oxytocin Receptors
Chinese Hamster Ovary (CHO) cells stably transfected with the human oxytocin receptor (cf. Tanizawa et al., U.S. Pat. No. 5,466,584 (1995) to Rohto Pharmaceutical Co. Ltd., Osaka, Japan) were obtained from M. Thibonnier, Case Western Reserve University School of Medicine, Cleveland, Ohio. A. Passaging and Amplification of Cells: CHO cells transfected with the human oxytocin receptors obtained from M. Thibonnier (pcDNA3.1 vector) are allowed to grow to confluency (approx. >90%) in T-150 flasks under sterile conditions, in a cell culture medium of F-12 Nutrient Mixture (HAM) with L-glutamine (Gibco Cat. # 11765-054) containing 15 mM HEPES (Gibco Cat. # 15630-080), 1% antibiotic/antimycotic (add 5 mL 100×, Gibco Cat. # 15240-062 per 500 mL F-12), 400 μg/mL of Geneticin (add 4 mL of 50 mg/mL per 500 mL F-12) and 10% Fetal Bovine Serum (Qualified, heat inactivated, Gibco Cat. # 16140-063). The medium is removed by aspiration and the cells are washed with 10 mL of Hank's Balanced Salt solution (Gibco Cat. # 14175-095). The salt solution is removed by aspiration and the cells trypsinized with 5 mL of trypsin-EDTA (0.05% trypsin, 0.53 mM EDTA-4Na, Gibco Cat. # 25300-070) for 1 min The trypsin is removed by aspiration and the cells dislodged by tapping. Cell Culture medium (e.g. 30 mL for 1:30 split) is immediately added and mixed well to inactivate trypsin. 1 mL of detached cells is added to new culture flasks containing fresh Cell Culture medium (e.g. into 25 mL per T-150 flask), and mixed gently. The cells are incubated at 37° C. in 5% CO2. The medium is changed at 3 to 4 days interval (or as appropriate). The cells grow to confluency (approx. >75%–95%) within 7–8 days. All steps are done under sterile conditions. B. Membrane Preparation: The cells are washed twice gently with Hank's Balanced Salt solution (eg, use 10 mL per T-150 flask). The excess solution is removed and the cells bathed for 15–30 min. in an enzyme-free Cell Dissociation Buffer (eg, use 8 mL Hank's Based, Gibco Cat. # 13150-016 per T-150 flask) until cells are loosened. The contents are transferred to centrifuge tubes (50 mL size) kept in ice bath. All subsequent steps are done at 4° C. The tubes are centrifuged at 300×g for 15 min (1380 rpm on SORVAL, Model RT6000D, using rotor for 50 mL tubes). The supernatant is discarded and the cells suspended in homogenizing buffer (10 mM Tris-HCl containing 0.25 M sucrose and 1 mM EDTA, pH 7.4) ensuring that the volume of the buffer is about ten times the volume of the cell pellet. The cells are pooled into a centrifuge tube (50 mL) and homogenized with a Polytron at setting 6 for 10 sec. The homogenate is transferred into a Potter-Elvjehm homogenizer and homogenized with 3 strokes. The homogenate is centrifuged at 1500×g for 10 min at 4° C. (3100 rpm using SORVAL, model RT6000D, using rotor for 50 mL tubes). The pellet is discarded. The supernatant is centrifuged at 100,000×g for 60 min. at 4° C. (Beckman L8-80M ultracentrifuge; spin at 37,500 rpm with rotor type 70 Ti for 50 mL tubes; 38,000 rpm with type 80Ti for 15 mL tubes; or 35,800 rpm with rotor type 45Ti). The supernantant is discarded and the pellet suspended in 3 to 4 mL of Tris buffer (50 mM TRIS-HCl, pH 7.4). The protein content is estimated by the Bradford or Lowry method. The volume of the membrane suspension is adjusted with the membrane buffer (50 mM Tris-HCl containing 0.1% BSA and 0.1 mM PMSF) to give 3.0 mg/mL (or as appropriate) of protein. The membranes are aliquoted and stored at −70° C. C. Radioligand Binding Assay: In wells of a 96-well format microtiter plate, is added 90, 110 or 130 μL (to make up a final volume of 200 μL) of assay buffer containing 50 mM of Tris-HCl (pH 7.4), […], 1 mg % aprotinin, 1 mg % leupeptin, 2 mg % 1,10-phenanthroline, 10 mg % trypsin inhibitor, and 0.1 mM PMSF. […]

| OT % inhibition at 100 nM | Structure (SMILES) |
| --- | --- |
| 91% | O=C(c1ccc(C2CCCCC2)cc1)N1Cc2ccc(C(=O)N3CCC[C@H]3CN3CCCC3)n2Cc2ccccc21 [Example 46, [10-(4-Cyclohexyl-benzoyl)-10,11-dihydro-5H-pyrrolo[2,1-c][1.4]benzodiazepin-3-yl][(2S)-2-(1-pyrrolidinylmethyl)pyrrolidinyl]methanone] |
| 82% | CN(C)[C@@H]1CCN(C(=O)c2ccc3n2Cc2ccccc2N(C(=O)c2ccc(C4CCCCC4)cc2)C3)C1 [Example 47, [10-(4-Cyclohexyl-benzoyl)-10,11-dihydro-5H-pyrrolo[2,1-C][1,4]benzodiazepin-3-yl][(3R)-3-(dimethylamino)pyrrolidinyl]methanone] |
| 78% | O=C(c1ccc2n1Cc1ccccc1N(C(=O)c1ccc(C3CCCCC3)cc1)C2)N1CCN(CCO)CC1 [Example 48, [10-(4-Cyclohexyl-benzoyl)-10,11-dihydro-5H-pyrrolo[2,1-c][1,4]benzodiazepin-3-y][4-(2-hydroxyethyl)-1-piperazinyl]methanone] |
| 4% | O=C(c1ccc2n1Cc1ccccc1N(C(=O)c1ccc(C3CCCCC3)cc1)C2)N1CCN(c2ccncc2)CC1 [Example 54, [10-(4-Cyclohexyl-benzoyl)-10,11-dihydro-5H-pyrrolo[2,1-c][1,4]benzpdiazepin-3-yl][4-(4-pyridinyl)-1-piperazinyl]-methanone] |

Same assay, conditions: 100 nM, [3H]oxytocin, read-out: OT % inhibition at 100 nM

| Structure (SMILES) | inhibition at 0.1 µM |
| --- | --- |
| O=C(NCCc1ccccn1)c1ccc2n1Cc1ccccc1N(C(=O)c1ccc(C3CCCCC3)cc1)C2 [Example 49, 10-(4-Cyclohexyl-benzoyl)-N-[2-(2-pyridinyl)ethyl]-10,11-dihydro-5H-pyrrolo[2,1-c][1,4]benzodiazepine-3-carboxamide] | -2% |
| O=C(NCc1ccccn1)c1ccc2n1Cc1ccccc1N(C(=O)c1ccc(C3CCCCC3)cc1)C2 [Example 50, 10-(4-Cyclohexyl-benzoyl)-N-(2-pyridinylmethyl)-10,11-dihydro-5H-pyrrolo[2,1-c][1,4]benzodiazepine-3-carboxamide] | -8% |
| O=C(NCc1cccnc1)c1ccc2n1Cc1ccccc1N(C(=O)c1ccc(C3CCCCC3)cc1)C2 [Example 51, 10-(4-Cyclohexyl-benzoyl)-N-(3-pyridinylmethyl)-10,11-dihydro-5H-pyrrolo [2,1-c][1,4]benzodiazepine-3-carboxamide] | -8% |
| CN(CCc1ccccn1)C(=O)c1ccc2n1Cc1ccccc1N(C(=O)c1ccc(C3CCCCC3)cc1)C2 [Example 52, 10-(4-Cyclohexyl-benzoyl)-N-methyl-N-[2-(2-pyridinyl)-ethyl]-10,11-dihydro-5H-pyrrolo[2,1-c][1,4]benzodiazepine-3-carboxamide] | 45% |
| O=C(NCc1ccncc1)c1ccc2n1Cc1ccccc1N(C(=O)c1ccc(C3CCCCC3)cc1)C2 [Example 53, 10-(4-Cyclohexyl-benzoyl)-N-(4-pyridinylmethyl)-10,11-dihydro-5H-pyrrolo[2,1-c][1,4]benzodiazepine-3-carboxamide] | 25% |
| CN(CCc1ccncc1)C(=O)c1ccc2n1Cc1ccccc1N(C(=O)c1ccc(C3CCCCC3)cc1)C2 [Example 55, 10-(4-Cyclohexyl-benzoyl)-N-methyl-N-[2(4-pyridinyl)ethyl]-10,11-dihydro-5H-pyrrolo[2,1-c][1,4]benzodiazepine-3-carboxamide] | 91% |
| O=C(c1ccc(C2CCCCC2)cc1)N1Cc2ccc(C(=O)n3ccnc3)n2Cc2ccccc21 [Example 56, 1H-Imidazol-1-yl-[10-(4-cyclohexyl-benzoyl)-10,11-dihydro-5H-pyrrolo[2,1-c][1,4]benzodiazepin-3-yl]-methanone] | 61% |
| CN(Cc1cccnc1)C(=O)c1ccc2n1Cc1ccccc1N(C(=O)c1ccc(C3CCCCC3)cc1)C2 [Example 57, 10-(4-Cyclohexyl-benzoyl)-N-methyl-N-(3-pyridinylmethyl)-10,11-dihydro-5H-pyrrolo[2,1-c][1,4]benzodiazepine-3-carboxamide] | -4% |

Further lines, results first:

| inhibition at 0.1 µM | Structure (SMILES) |
| --- | --- |
| 2% | CC(C)N1CCN(C(=O)c2ccc3n2Cc2ccccc2N(C(=O)c2ccc(C4CCCCC4)cc2)C3)CC1 [Example 44, [10-(4-Cyclohexyl-benzoyl)-10,11-dihydro-5H-pyrrolo[2,1-c][1,4]benzodiazepin-3-yl](4-isopropyl-1-piperazinyl)methanone] |
| 71% | CN(C)CCCN1CCN(C(=O)c2ccc3n2Cc2ccccc2N(C(=O)c2ccc(C4CCCCC4)cc2)C3)CC1 [Example 45, [10-(4-Cyclohexyl-benzoyl)-10,11-dihydro-5H-pyrrolo[2,1-c][1,4]benzodiazepin-3-yl]{4-[3-(dimethylamino)propyl]-1-piperazinyl}methanone] |
